Measurements taken from patent US6534512B1, “Dideoxycarbocyclic nucleosides” (Regents of the University of Minnesota, priority 1988, dated 2003).
Values after ≈ are worked out from the molar mass of the structure shown.

Columns and labels:
HIV [1] = assay: Anti-HIV assay (NCI FCRF, XTT microculture tetrazolium), infected cells; assay type: cell-based; conditions: for anti-HIV activity: in vitro
Excerpt: (§1) Compounds of formula I were screened for anti-HIV activity at the National Cancer Institute, Frederick Cancer Research Facility, Frederick, Md. (FCRF). The following are the current screening mode operational procedures utilized at FCRF. The protocol consists of 3 areas, (I) preparation of infected cells and distribution to the test plates, (II) preparation of drug dilution plates and distribution to the test plates, and (III) XTT assay procedure. See D. A. Scudiero et al., “A New Simplified Tetrazolium Assay for Cell Growth and Drug Sensitivity in Culture,” Cancer Res., 48, 4827 (1988).
Cells to be infected (a normal lymphoblastoid cell line which expresses CD4) are placed in 50 ml conical centrifuge tubes and treated for 1 hr with 1-2 μg/ml of polybrene at 37° C. The cells are then pelleted for 8 min. ) at 1200 rpm. HIV virus, diluted 1:10 in media (RMP1-1640, 10% human serum or 15% fetal calf serum (FCS), with IL-2, for ATH8 cells only, and antibiotics) is added to provided an MOI of 0.001. Medium alone is added to virus-free control cells. Assuming an infectious virus titer of 10^−4, an MOI of 0.001 represents […] infectious virus particles per 10,000 cells. About 500,000 cells/tube are exposed to 400 μl of the virus dilution. The resultant mixture is incubated for 1 hr at 37° C. in Air-CO2. The infected or uninfected cells are diluted to give 1×10^−4 (with human serum or 2×10^−4 with fetal calf serum) cells/100 μl.
Infected or uninfected cells (100 μl) are distributed to appropriate wells of a 96 well, U-bottom, microtiter plate. Each compound dilution is tested in duplicate with infected cells. Uninfected cells are examined for drug sensitivity in a single well for each dilution of compound. Drug-free control cells, infected and uninfected, are run in triplicate. Wells B2 through G2 served as reagent controls and received medium only. The plates are incubated at 37° C. in Air-CO2 until the drug is added.
Dilution plates (flat bottom 96 well, microtiter plates) are treated overnight with phosphate buffered saline (PBS) or media containing at least 1% FCS or 1% human serum (depending on the medium used in the test), beginning the day before assay. This “blocking” procedure is used to limit the adsorption of drug to the microtiter tray during the dilution process. The wells are filled completely with the blocking solution and allowed to stand at room temperature in a humidified chamber in a hood.
The dilution process is begun by first diluting the test compound 1:20. Blocked, dilution plates are prepared by flicking out the blocking solution and blotting dry on sterile gauze. All wells of each plate are then filled with 225 μl of the appropriate medium using a Cetus liquid handling system. Twenty-five microliters (25 μl) of each 1:20 diluted compound is then manually added to row A of a blocked and filled dilution plate. Four compounds, sufficient to supply two test plates, are added per dilution plate. The four compounds are then serially diluted ten-fold from row A through row H using the Cetus liquid handling system. The starting dilution of each compound in row A is, at this point, 1:200. The dilution plates are kept on ice until needed.
Using a multi-channel pipettor with 6 microtips, 100 μl of each drug dilution is transferred to the test plate which already contains 100 μl of medium plus cells. The final dilution, in the test plate, starts at 1:400 (wells B4 through G4). This dilution (to 0.25% DMSO) prevents the DMSO vehicle from interfering with cell growth. Drug-free, infected or uninfected cells (wells B3 through G3) and reagent controls (B2 through G2) receive medium alone. The final two compounds are then transferred from wells H7 through H12 to a second test plate using the same procedure. Test plates are incubated at 37° C. in Air-CO2 or 7-14 days or until virus controls are lysed as determined macroscopically.
1. […]

[2] = tested on: normal cells (uninfected); assay: Anti-HIV assay (NCI FCRF, XTT), drug sensitivity of uninfected cells; assay type: cell-based
Excerpt: as §1
Cells to be infected (a normal lymphoblastoid cell line which expresses CD4) are placed in 50 ml conical centrifuge tubes and treated for 1 hr with 1-2 μg/ml of polybrene at 37° C. The cells are then pelleted for 8 min. ) at 1200 rpm. HIV virus, diluted 1:10 in media (RMP1-1640, 10% human serum or 15% fetal calf serum (FCS), with IL-2, for ATH8 cells only, and antibiotics) is added to provided an MOI of 0.001. Medium alone is added to virus-free control cells. […]
Using a multi-channel pipettor with 6 microtips, 100 μl of each drug dilution is transferred to the test plate which already contains 100 μl of medium plus cells. […] Test plates are incubated at 37° C. in Air-CO2 or 7-14 days or until virus controls are lysed as determined macroscopically. […]

HSV-1 = assay: Activity against HSV-1
H9/HTLV-IIIB = assay: Earlier anti-HIV assay at the Southern Research Institute; assay type: cell-based; conditions: MT-2 cells cultured with H9/HTLV-IIIB
Experimental: An earlier assay carried out at the Southern Research Institute yielded a TI50 of about 200 when MT-2 cells were cultured with H9/HTLV-IIIB.

HIV [3] = tested on: HIV; design: TI50 against HIV in vitro: unit not given beside the values; conditions: background; cited from earlier work
HSV-2 = conditions: background; cited from earlier work
[4] = tested on: P-388 mouse leukemia cells; assay: P-388 mouse leukemia cell culture cytotoxicity assay; assay type: cell-based; conditions: cultured P-388 leukemia cells
Excerpt: The ED50 cytotoxicity concentrations determined for analogs 7a, 9a, 10a, 16a, 16b, 17a and 17b in the P-388 mouse leukemia cell culture assay are given in Table II.

Row | SMILES | anti-HIV activity (HIV [1]) | cytotoxicity / activity against P-388 leukemia cells [4] | further results
1 | CC(=O)OCC1C=CC(n2cnc3c(O)nc(N)nc32)C1 (stereo not drawn) [acetate ester (R′=Ac) of 14a, (1α,4α)-4-(2-Amino-6-hydroxy-9H-purin-9-yl)-2-cyclopentenyl Acetoxycarbinol] | active | – | inhibition of HIV (HIV [1]; at 6 μg/ml): 28%
2 | Nc1nc(O)c2ncn(C3C=CC(CO)C3)c2n1 (racemic) [Compound 14a, (±)-(1α,4α)-4-(2-Amino-6-hydroxy-9H-purin-9-yl)-2-cyclopentenyl carbinol] | strongly inhibits | – | effective concentration (EC50) with respect to infected cells (HIV [1]; calculated from FIG. 2 data): about 0.15 μg/ml; TI50, general range (HIV [1]; varied with the infected cell line used): 200-400; inhibitory concentration (IC50) with respect to normal cells ([2]; calculated from FIG. 2 data): about 100 μg/ml; activity against HSV-1 (HSV-1): active; TI50 (H9/HTLV-IIIB): about 200
3 | Nc1ncnc2c1ncn2[C@@H]1C[C@H](CO)[C@@H](O)[C@@H]1O [Cyclaridine] | – | – | TI50 against HIV in vitro (HIV [3]): 10; activity against HSV-2 (HSV-2): highly active
4 | Nc1nc(N)c2nnn(C3C=CC(CO)C3)c2n1 (racemic) [Compound 18a, (±)-(1α,4α)-4-(5,7-Diamino-3H-1,2,3-triazolo[4,5-d]pyrimidin-3-yl)-2-cyclopentenyl carbinol] | – | cytotoxic | –
5 | Nc1ncnc2c1ncn2C1C=CC(CO)C1 (racemic) [Compound 9a, (±)-(1α,4α)-4-(6-Amino-9H-purin-9-yl)-2-cyclopentenyl-carbinol] | active | cytotoxic | –
6 | Nc1nc(O)c2ncn([C@H]3C=C[C@@H](CO)C3)c2n1 [(−)14a, (1S,4R)-4-(2-Amino-6-hydroxy-9H-Purin-9-yl)-2-cyclopentenyl Carbinol] | highly active | – | IC50 ([2]; Homo sapiens, CCRF-CEM, CEM cells): 189 µg/mL (≈ 764 µM)
7 | Nc1nc(Cl)c2nnn(C3C=CC(CO)C3)c2n1 (racemic) [Compound 16a, (±)-(1α,4α)-4-(5-Amino-7-chloro-3H-1,2,3-triazolo[4,5d]-pyrimidin-3-yl)-2-cyclopentenyl carbinol] | – | cytotoxic | –
8 | Nc1nc(O)c2nnn(C3C=CC(CO)C3)c2n1 (racemic) [Compound 17a, (±)-(1α,4α)-4-(5-Amino-7-hydroxy-3H-1,2,3-triazolo[4,5-d]-pyrimidin-3-yl)-2-cyclopentenyl carbinol] | – | cytotoxic | –
9 | OCC1C=CC(n2cnc3c(S)ncnc32)C1 (racemic) [Compound 10a, (±)-(1α,4α)-4-(6-Mercapto-9H-purin-9-yl)-2-cyclopentenyl-carbinol] | active | cytotoxic | –
10 | Nc1nc(Cl)c2ncn([C@H]3C=C[C@@H](CO)C3)c2n1 (racemic) [Compound 13a, (±)-(1α,4α)-4-(2-Amino-6-chloro-9H-purin-9-yl)-2-cyclopentenyl carbinol] | active | – | –
11 | Nc1nc(N)c2ncn([C@H]3C=C[C@@H](CO)C3)c2n1 (racemic) [Compound 15a, (±)-(1α,4α)-4-(2,6-Diamino-9H-purin-9-yl)-2-cyclopentenyl-carbinol] | active | – | –
12 | OCC1C=CC(n2cnc3c(Cl)ncnc32)C1 (racemic) [Compound 7a, (±)-(1α,4α)-4-(6-chloro-9H-purin-9-yl)-2-cyclopentenyl-carbinol] | active | cytotoxic | –
13 | Cc1cn(C2CC(CO)C(N=[N+]=[N-])C2)c(=O)[nH]c1=O (stereo not drawn) [carbocyclic analog of AZT] | – | – | activity against HIV (HIV [3]): inactive
